# Measurements reported in patent publication US5436260A, “Angiotensin II receptor antagonists” (Warner-Lambert Company, priority 1994, dated 1995).
# Counter-ions that a name gives are not always drawn.
# Molecular target: T1, AT1 receptor (Rattus norvegicus, UniProt P25095)
# T1 construct: rat liver membranes; from tissue; host or cells: rat liver membranes
# T1 sequence (P25095 1-359): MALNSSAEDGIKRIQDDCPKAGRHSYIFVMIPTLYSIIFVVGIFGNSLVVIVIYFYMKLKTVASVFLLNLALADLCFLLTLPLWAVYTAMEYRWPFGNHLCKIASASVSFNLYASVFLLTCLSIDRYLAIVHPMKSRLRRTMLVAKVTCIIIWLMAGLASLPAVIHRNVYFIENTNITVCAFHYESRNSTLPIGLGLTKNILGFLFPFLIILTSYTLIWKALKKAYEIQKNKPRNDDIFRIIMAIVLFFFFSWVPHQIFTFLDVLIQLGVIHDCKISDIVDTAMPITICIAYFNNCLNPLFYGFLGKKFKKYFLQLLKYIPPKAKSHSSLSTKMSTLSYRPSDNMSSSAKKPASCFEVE
# Experiment: [^3 H]angiotensin II binding to rat liver membranes (AT1 test)
# Settings: inhibition of [^3 H]angiotensin II binding
# Protocol: The compounds of Formula I or Ia are antagonists of angiotensin II. Dudley, D. T., et al, Molecular Pharmacology 1990;38:370-377 reported the existence of 2 subclasses of angiotensin II binding sites in rabbit adrenal gland and uterus and in the rat liver which differ in their tissue distribution and affinity for various peptide and nonpeptide ligands. Thus, the compounds of Formula I or Ia were tested for their ability to inhibit [^3 H]angiotensin II binding to rat liver membranes (AT1 test) according to the methods described by Dudley, D. T., et al, Molecular Pharmacology 1990;38:370-7. […] It is well established that compounds which antagonize the effect of angiotensin II at the AT1 receptor have value for treatment of hypertension and heart failure.
row,SMILES,IC50 [nM]
1,CCCCc1ncc(/C=C2\C(=O)NC(=O)N2CCC(C)C)n1Cc1ccc(C(=O)O)cc1 [Example 2a],9.4
2,CCCCc1ncc(/C=C2/C(=O)NC(=O)N2CCC(C)C)n1Cc1ccc(C(=O)O)cc1 [Example 2b],8.8
3,"CCCCc1ncc(/C=C2\C(=O)NC(=O)N2C)n1Cc1ccc(C(=O)O)cc1 [Example 3a, (E)-4-[[2-Butyl-5-[(2,5-dioxo-3-methyl-4-imidazolidinylidene)methyl]-1H-imidazol-1-yl]methyl]benzoic acid]",172
4,"CCCCc1ncc(/C=C2/C(=O)NC(=O)N2C)n1Cc1ccc(C(=O)O)cc1 [Example 3b, (Z)-4-[[2-Butyl-5-[(2,5-dioxo-3-methyl-4-imidazolidinylidene)methyl]-1H-imidazol-1-yl]methyl]benzoic acid]",83.8
5,CCCCc1ncc(/C=C2/C(=O)NC(=O)N2Cc2ccccc2)n1Cc1ccc(C(=O)O)cc1 [Example 4b],4.17
6,"CCCCc1ncc(/C=C2\C(=O)NC(=O)N2c2ccccc2)n1Cc1ccc(C(=O)O)cc1 [Example 5, (E)-4-[[2-Butyl-5-[(2,5-dioxo-3-phenyl-4-imidazol-imidazolidinylidene)methyl]-1H-imidazole-1-yl]methyl]benzoic acid]",643
7,CCCCc1ncc(/C=C2\C(=O)NC(=O)N2Cc2cccs2)n1Cc1ccc(C(=O)O)cc1 [Example 6a],2.97
8,CCCCc1ncc(/C=C2/C(=O)NC(=O)N2Cc2cccs2)n1Cc1ccc(C(=O)O)cc1 [Example 6b],1.43
9,CCCCN1C(=O)N(C)C(=O)/C1=C\c1cnc(CCC)n1Cc1ccc(C(=O)OC)cc1 [Example 18],21
10,"CCCCc1ncc(/C=C2/C(=O)N(CCCC)C(=O)N2CCCC)n1Cc1ccc(C(=O)OC)cc1 [Example 22, Methyl Z-4-[[-2-butyl-5-[(1,3-dibutyl-2,5-dioxo-4-imidazolidinylidene)methyl]-1H -imidazol-1-yl]methyl]benzoate monohydrochloride]",1.67
11,"CCCCc1ncc(/C=C2/C(=O)N(CCCC)C(=O)N2Cc2cccs2)n1Cc1ccc(C(=O)OC)cc1 [Example 23, Methyl Z-4-[[2-butyl-5-[[1-butyl-2,5-dioxo-3-(2-thienylmethyl)-4-imidazolidinylidene]methyl]-1H-imidazol-1-yl]methyl]benzoate monohydrochloride]",3.39
12,"CCCCc1ncc(/C=C2\C(=O)N(CCCC)C(=O)N2Cc2cccs2)n1Cc1ccc(C(=O)OC)cc1 [Example 24, Methyl E-4-[[2-butyl-5-[[1-butyl-2,5-dioxo-3-(2-thienylmethyl)-4-imidazolidinylidene]methyl]-1H-imidazol-1-yl]methyl]benzoate monohydrochloride]",10.3
13,CCCCc1ncc(/C=C2/C(=O)N(CCCC)C(=O)N2Cc2cccs2)n1Cc1ccc(C(=O)O)cc1 [Example 25],6.39
14,"CCCCc1ncc(C(O)C2C(=O)NC(=O)N2CCCC)n1Cc1ccc(C(=O)OC)cc1 (stereo not shown) [Example 29, Methyl 4-[[2-butyl-5-[(3-butyl-2,5-dioxo-4-imidazolidinyl)hydroxymethyl]-1H-imidazol-1-yl]methyl]benzoate]",> 1000
15,"CCCCc1ncc(/C=C2/C(=O)N(CCCC)C(=O)N2CCCC)n1Cc1ccc(C(=O)OC)cc1 [Example 33, Methyl Z-4-[[2-butyl-5-[(1,3-dibutyl-2,5-dioxo-4-imidazolidinylidene)methyl]-1 H-imidazol-1-yl]methyl]benzoate monohydrochloride]",8.49
16,"CCCCCCN1C(=O)N(CCCC)C(=O)/C1=C/c1cnc(CCCC)n1Cc1ccc(C(=O)OC)cc1 [Example 35, Methyl Z-4-[[2-butyl-5-[(1-butyl-3-hexyl-2,5-dioxo-4-imidazolidinylidene)methyl]-1H-imidazol-1-yl]methyl]benzoate monohydrochloride]",40.2
17,"CCCCc1ncc(/C=C2/C(=O)N(CCCC)C(=O)N2Cc2ccccc2)n1Cc1ccc(C(=O)OC)cc1 [Example 36, Methyl Z-4-[[2-butyl-5-[[1-butyl-2,5-dioxo-3-(phenylmethyl)-4-imidazolidinylidene]methyl]-1H-imidazol-1-yl]methyl]benzoate monohydrochloride]",12.4
18,"CCCCc1ncc(/C=C2/C(=O)N(CCCC)C(=O)N2Cc2ccc(C(=O)OC)cc2)n1Cc1ccc(C(=O)OC)cc1 [Example 37, Methyl Z-4-[[2-butyl-5-[[1-butyl-3-[[4-(methoxycarbonyl)phenyl]methyl]-2,5-dioxo-4-imidazolidinylidene]methyl]-1H-imidazol-1-yl]methyl]benzoate monohydrochloride]",14.3
19,"CCCCc1ncc(/C=C2/C(=O)N(CCCC)C(=O)N2Cc2ccc([N+](=O)[O-])cc2)n1Cc1ccc(C(=O)OC)cc1 [Example 38, mono hydrochloride]",16.9
20,"CCCCc1ncc(/C=C2/C(=O)N(CCCC)C(=O)N2CCc2ccccc2)n1Cc1ccc(C(=O)OC)cc1 [Example 41, Methyl Z-4-[[2-butyl-5-[[1-butyl-2,5-dioxo-3-(2-phenylethyl)-4-imidazolidinylidene]methyl]-1H-imidazol-1-yl]methyl]benzoate mono hydrochloride]",30.9

# More lines, now with the values ahead:
row,IC50 [nM],SMILES
1,10.9,"CCCCc1ncc(/C=C2\C(=O)NC(=O)N2CCCC)n1Cc1ccc(C(=O)OC)cc1 [Example 15a, (E)-4-[[2-Butyl-5-[(3-butyl-2,5-dioxo-4-imidazolidinylidene)methyl]-1H-imidazole-1-yl]methyl]benzoic acid, methyl ester]"
2,10.3,"CCCCc1ncc(/C=C2/C(=O)NC(=O)N2CCCC)n1Cc1ccc(C(=O)OC)cc1 [Example 15b, (Z)-4-[[2-Butyl-5-[(3-butyl-2,5-dioxo-4-imidazolidinylidene)methyl]-1H-imidazole-1-yl]methyl]benzoic acid, methyl ester]"
3,5.45,"CCCCc1ncc(/C=C2\C(=O)NC(=O)N2Cc2cccs2)n1Cc1ccc(C(=O)OC)cc1 [Example 16a, (e)-4-[]2-Butyl-5-[[2,5-dioxo-3-((2-thienyl)methyl)-4-imidazolidinylidene[methyl]-1H-imidazole-1-yl]methyl]benzoic acid, methyl ester]"
4,6.92,"CCCCc1ncc(/C=C2/C(=O)NC(=O)N2Cc2cccs2)n1Cc1ccc(C(=O)OC)cc1 [Example 16b, (Z)-4-[[2-Butyl-5-[[2,5-dioxo-3-((2-thienyl)methyl)-4-imidazolidinylidene]methyl]-1H-imidazole-1-yl]methyl]benzoic acid, methyl ester]"
5,98.3,CCCCc1ncc(/C=C2\C(=O)NC(=O)N2CCCCO)n1Cc1ccc(C(=O)OC)cc1 [Example 17a]
6,49.5,"CCCCc1ncc(/C=C2/C(=O)NC(=O)N2CCCCO)n1Cc1ccc(C(=O)OC)cc1 [Example 17b, (Z)-4-[[2-Butyl-5-[[2,5-dioxo-3-(4-hydroxybutyl)-4-imidazolidinylidene]methyl]-1-H-imidazole-1-yl]methyl]benzoic acid, methyl ester]"
7,3.36,"CCCCc1ncc(/C=C2\C(=O)NC(=O)N2Cc2ccc(Cl)cc2)n1Cc1ccc(C(=O)O)cc1 [Example 20a, E-4-[[2-butyl-5-[[3-[(4-chlorophenyl)methyl]-2,5-dioxo-4-imidazolidinylidene]methyl]-1H-imidazol-1-yl]methyl]benzoic acid]"
8,2.47,"CCCCc1ncc(/C=C2/C(=O)NC(=O)N2Cc2ccc(Cl)cc2)n1Cc1ccc(C(=O)O)cc1 [Example 20b, Z-4-[[2-butyl-5-[[3-[(4-chlorophenyl)methyl]-2,5-dioxo-4-imidazolidinylidene]methyl]-1H-imidazol-1-yl]methyl]benzoic acid]"
9,111,CCCCc1ncc(/C=C2\C(=O)NC(=O)N2Cc2ccc(OC)c(OC)c2)n1Cc1ccc(C(=O)O)cc1 [Example 21a]
10,89.3,CCCCc1ncc(/C=C2/C(=O)NC(=O)N2Cc2ccc(OC)c(OC)c2)n1Cc1ccc(C(=O)O)cc1 [Example 21b]
11,2.63,"CCCCc1ncc(/C=C2\C(=O)NC(=O)N2Cc2cccs2)n1Cc1ccc(C2(C(=O)O)CCCC2)cc1 [Example 26a, E-1-[4-[[2-butyl-5-[[2,5-dioxo-3-(2-thienylmethyl)-4-imidazolidinylidene]methyl]-1H-imidazol-1-yl]methyl]phenyl]cyclopentanecarboxylic acid]"
12,2.22,"CCCCc1ncc(/C=C2/C(=O)NC(=O)N2Cc2cccs2)n1Cc1ccc(C2(C(=O)O)CCCC2)cc1 [Example 26b, Z-1-[4-[[2-butyl-5-[[2,5-dioxo-3-(2-thienylmethyl)-4-imidazolidinylidene]methyl]-1H-imidazol-1-yl]methyl]phenyl]cyclopentanecarboxylic acid]"
13,178,"CCCCc1ncc(/C=C2\NC(=O)N(CCCC)C2=O)n1Cc1ccc(C(=O)OC)cc1 [Example 32a, Methyl Z-4-[[2-butyl-5-[(1-butyl-2,5-dioxo-4-imidazolidinylidene)methyl]-1H-imidazol-1-yl]methyl]benzoate monohydrochloride]"
14,1170,"CCCCc1ncc(/C=C2/NC(=O)N(CCCC)C2=O)n1Cc1ccc(C(=O)OC)cc1 [Example 32b, Methyl E-4-[[2-butyl-5-[(1-butyl-2,5-dioxo-4-imidazolidinylidene)methyl]-1H-imidazol-1-yl]methyl]benzoate]"
